Test system: moderate-to-severe chronic spontaneous urticaria (CSU)
Assay: Phase 2 CSU study: urticaria activity score over 7 days (UAS7)
Assay type: in vivo, human
Parameters: key to UAS7 Median / UAS7 Change from baseline Median / UAS7 change from baseline, Q1 / UAS7 change from baseline, Q3 / UAS7 change from baseline, Max / UAS7 Change from baseline LS Mean (SE): UAS7 points; daily UAS score ranges 0–6 points/day, over 7 days
Source text: The study comprises a 12 week, randomized, double-blind, placebo-controlled, multi-center, dose-ranging efficacy and safety phase, followed by a 40 week open label extension (OLE) phase (see FIG. 1). The study consists of three phases and an optional OLE phase. […] Clinically, CSU is characterized by the spontaneous and recurrent appearance of pruritic hives. The proposed primary endpoints were the UAS7 at Week 12 in EU and EU reference countries and the ISS7 in the US. Regardless of where a participant was from, all assessments were the same. The UAS7 score is a composite score containing both the HSS7 and the ISS7. This allowed a global assessment of the two key components of urticaria: hives and itch. […] The UAS is a validated PRO measure. […] The daily UAS scores range from 0 to 6 point/day. […] Patients were to complete the UAS using the e-diary. […] The following secondary endpoints were to be analyzed using the same approach as for the primary endpoint: • Change from baseline in UAS7 at Week 4 • Change from baseline in UAS7 at Week 12 (for US and US reference countries) • Change from baseline in ISS7 at Week 12 (except US and US reference countries) • Change from baseline in HSS7 at Week 12 The following responder secondary endpoints were to be analyzed using the Cochran-Mantel-Haenszel test adjusted by region: • Proportion of participants with UAS7<6 at Week 12 • Proportion of participants with UAS7=0 at Week 12 Participants who received selected prohibited medications and/or rescue medications were to be considered as non-responders for time points after the medication usage. For other participants, all available data including those collected during the off-treatment period were to be used to determine the responder/non-responder status. Missing data were to be considered as non-responders.

[1] = Week 10, 400 mg TID, ITT population
[2] = Week 10, 400 mg TID, Omalizumab-Naïve
[3] = Week 10, 400 mg TID, Prior Omalizumab Use
[4] = Week 10, 400 mg TID, omalizumab-naive participants
[5] = Week 11, 400 mg BID, ITT population
[6] = Week 11, 400 mg BID, Omalizumab-Naïve
[7] = Week 11, 400 mg BID, Prior Omalizumab Use
[8] = Week 11, 400 mg BID, omalizumab-naive participants
[9] = Week 11, 400 mg QPM, ITT population
[10] = Week 11, 400 mg QPM, Omalizumab-Naïve
[11] = Week 11, 400 mg QPM, Prior Omalizumab Use
[12] = Week 11, 400 mg QPM, omalizumab-naive participants
[13] = Week 11, 400 mg TID, ITT population
[14] = Week 11, 400 mg TID, Omalizumab-Naïve
[15] = Week 11, 400 mg TID, Prior Omalizumab Use
[16] = Week 11, 400 mg TID, omalizumab-naive participants
[17] = Week 12, 400 mg BID, ITT population
[18] = Week 12, 400 mg BID, Omalizumab-Naïve
[19] = Week 12, 400 mg BID, Prior Omalizumab Use
[20] = Week 12, 400 mg BID, omalizumab-naive participants
[21] = Week 12, 400 mg QPM, ITT population
[22] = Week 12, 400 mg QPM, Omalizumab-Naïve
[23] = Week 12, 400 mg QPM, Prior Omalizumab Use
[24] = Week 12, 400 mg QPM, omalizumab-naive participants
[25] = Week 12, 400 mg TID, ITT population
[26] = Week 12, 400 mg TID, Omalizumab-Naïve
[27] = Week 12, 400 mg TID, Prior Omalizumab Use
[28] = Week 12, 400 mg TID, omalizumab-naive participants

## CC(C)(C=C(C#N)C(=O)N1CCC[C@@H](n2nc(-c3ccc(Oc4ccccc4)cc3F)c3c(N)ncnc32)C1)N1CCN(C2COC2)CC1 [rilzabrutinib, (R)-2-[3-[4-amino-3-(2-fluoro-4-phenoxy-phenyl)pyrazolo[3,4-d]pyrimidin-1-yl]piperidine-1-carbonyl]-4-methyl-4-[4-(oxetan-3-yl)piperazin-1-yl]pent-2-enenitrile]
[1]
  Non-responder, UAS7 reduction from baseline of 10 points or more: 14 (34.1) n (%)
  OR for rilzabrutinib vs. placebo, UAS7 reduction of 10 points or more: 2.018
  RRD (%) for rilzabrutinib vs. placebo, UAS7 reduction of 10 points or more: 15.7 %
  Responder, UAS7 reduction from baseline of 10 points or more: 27 (65.9) n (%)
[2]
  UAS7 Change from baseline Median: −20.00
  UAS7 Mean (SD): 12.61 (9.89)
  UAS7 Median: 12.83
  UAS7 Percent change from baseline Mean (SD): −58.08 (31.82) %
  UAS7 Percent change from baseline Median: −59.49%
[3]
  UAS7 Change from baseline Mean (SD): −25.19 (15.27)
  UAS7 Change from baseline Median: −25.08
  UAS7 Mean (SD): 7.83 (11.43)
  UAS7 Median: 4.00
  UAS7 Percent change from baseline Mean (SD): −73.42 (30.92) %
  UAS7 Percent change from baseline Median: −84.09%
[4]
  Non-responder, UAS7 reduction from baseline of 10 points or more: 12 (34.3) n (%)
  OR for rilzabrutinib vs. placebo, UAS7 reduction of 10 points or more: 2.327
  RRD (%) for rilzabrutinib vs. placebo, UAS7 reduction of 10 points or more: 19.8 %
  Responder, UAS7 reduction from baseline of 10 points or more: 23 (65.7) n (%)
[5]
  Non-responder, UAS7 reduction from baseline of 10 points or more: 19 (46.3) n (%)
  OR for rilzabrutinib vs. placebo, UAS7 reduction of 10 points or more: 1.009
  RRD (%) for rilzabrutinib vs. placebo, UAS7 reduction of 10 points or more: 0.2 %
  Responder, UAS7 reduction from baseline of 10 points or more: 22 (53.7) n (%)
[6]
  UAS7 Change from baseline Mean (SD): −14.86 (11.83)
  UAS7 Change from baseline Median: −19.00
  UAS7 Mean (SD): 15.06 (13.80)
  UAS7 Percent change from baseline Mean (SD): −51.82 (39.20) %
  UAS7 Percent change from baseline Median: −57.14%
[7]
  UAS7 Change from baseline Mean (SD): −20.43 (19.00)
  UAS7 Change from baseline Median: −25.00
  UAS7 Mean (SD): 11.57 (15.45)
  UAS7 Median: 2.00
  UAS7 Percent change from baseline Mean (SD): −59.15 (51.57) %
  UAS7 Percent change from baseline Median: −92.59%
[8]
  Non-responder, UAS7 reduction from baseline of 10 points or more: 16 (45.7) n (%)
  OR for rilzabrutinib vs. placebo, UAS7 reduction of 10 points or more: 1.183
  RRD (%) for rilzabrutinib vs. placebo, UAS7 reduction of 10 points or more: 4.4 %
  Responder, UAS7 reduction from baseline of 10 points or more: 19 (54.3) n (%)
[9]
  Non-responder, UAS7 reduction from baseline of 10 points or more: 19 (50.0) n (%)
  OR for rilzabrutinib vs. placebo, UAS7 reduction of 10 points or more: 0.945
  RRD (%) for rilzabrutinib vs. placebo, UAS7 reduction of 10 points or more: −1.3 %
  Responder, UAS7 reduction from baseline of 10 points or more: 19 (50.0) n (%)
[10]
  UAS7 Change from baseline Mean (SD): −11.28 (9.60)
  UAS7 Change from baseline Median: −11.00
  UAS7 Mean (SD): 21.17 (11.16)
  UAS7 Median: 20.00
  UAS7 Percent change from baseline Mean (SD): −35.34 (30.18) %
  UAS7 Percent change from baseline Median: −34.19%
[11]
  UAS7 Change from baseline Mean (SD): −23.00 (NC)
  UAS7 Change from baseline Median: −23.00
  UAS7 Mean (SD): 18.00 (NC)
  UAS7 Median: 18.00
  UAS7 Percent change from baseline Mean (SD): −56.10 (NC) %
  UAS7 Percent change from baseline Median: −56.10%
[12]
  Non-responder, UAS7 reduction from baseline of 10 points or more: 19 (51.4) n (%)
  OR for rilzabrutinib vs. placebo, UAS7 reduction of 10 points or more: 0.946
  RRD (%) for rilzabrutinib vs. placebo, UAS7 reduction of 10 points or more: −1.3 %
  Responder, UAS7 reduction from baseline of 10 points or more: 18 (48.6) n (%)
[13]
  Non-responder, UAS7 reduction from baseline of 10 points or more: 14 (34.1) n (%)
  OR for rilzabrutinib vs. placebo, UAS7 reduction of 10 points or more: 1.624
  RRD (%) for rilzabrutinib vs. placebo, UAS7 reduction of 10 points or more: 10.3 %
  Responder, UAS7 reduction from baseline of 10 points or more: 27 (65.9) n (%)
[14]
  UAS7 Change from baseline Median: −17.00
  UAS7 Median: 13.00
  UAS7 Percent change from baseline Mean (SD): −56.01 (34.22) %
  UAS7 Percent change from baseline Median: −60.00%
[15]
  UAS7 Change from baseline Mean (SD): −25.94 (15.41)
  UAS7 Change from baseline Median: −26.33
  UAS7 Mean (SD): 7.08 (11.77)
  UAS7 Median: 1.75
  UAS7 Percent change from baseline Mean (SD): −76.09 (31.89) %
  UAS7 Percent change from baseline Median: −92.11%
[16]
  Non-responder, UAS7 reduction from baseline of 10 points or more: 12 (34.3) n (%)
  OR for rilzabrutinib vs. placebo, UAS7 reduction of 10 points or more: 1.839
  RRD (%) for rilzabrutinib vs. placebo, UAS7 reduction of 10 points or more: 13.6 %
  Responder, UAS7 reduction from baseline of 10 points or more: 23 (65.7) n (%)
[17]
  Non-responder, UAS7 reduction from baseline of 10 points or more: 23 (56.1) n (%)
  OR for rilzabrutinib vs. placebo, UAS7 reduction of 10 points or more: 1.041
  RRD (%) for rilzabrutinib vs. placebo, UAS7 reduction of 10 points or more: 1.0 %
  Responder, UAS7 reduction from baseline of 10 points or more: 18 (43.9) n (%)
[18]
  UAS7 Change from baseline Mean (SD): −14.49 (12.08)
  UAS7 Change from baseline Median: −12.80
  UAS7 Mean (SD): 15.61 (13.91)
  UAS7 Median: 14.00
  UAS7 Percent change from baseline Mean (SD): −50.20 (37.89) %
  UAS7 Percent change from baseline Median: −47.76%
[19]
  UAS7 Change from baseline Mean (SD): −26.00 (18.38)
  UAS7 Change from baseline Median: −31.00
  UAS7 Mean (SD): 8.75 (17.50)
  UAS7 Median: 0.00
  UAS7 Percent change from baseline Mean (SD): −75.00 (50.00) %
  UAS7 Percent change from baseline Median: −100.00%
[20]
  Non-responder, UAS7 reduction from baseline of 10 points or more: 20 (57.1) n (%)
  OR for rilzabrutinib vs. placebo, UAS7 reduction of 10 points or more: 1.069
  RRD (%) for rilzabrutinib vs. placebo, UAS7 reduction of 10 points or more: 1.7 %
  Responder, UAS7 reduction from baseline of 10 points or more: 15 (42.9) n (%)
[21]
  Non-responder, UAS7 reduction from baseline of 10 points or more: 24 (63.2) n (%)
  OR for rilzabrutinib vs. placebo, UAS7 reduction of 10 points or more: 0.841
  RRD (%) for rilzabrutinib vs. placebo, UAS7 reduction of 10 points or more: −4.0 %
  Responder, UAS7 reduction from baseline of 10 points or more: 14 (36.8) n (%)
[22]
  UAS7 Change from baseline Mean (SD): −10.57 (9.36)
  UAS7 Change from baseline Median: −8.70
  UAS7 Median: 22.87
  UAS7 Percent change from baseline Mean (SD): −33.23 (28.33) %
  UAS7 Percent change from baseline Median: −29.67%
[23]
  UAS7 Change from baseline Mean (SD): −25.00 (NC)
  UAS7 Change from baseline Median: −25.00
  UAS7 Mean (SD): 16.00 (NC)
  UAS7 Median: 16.00
  UAS7 Percent change from baseline Mean (SD): −60.98 (NC) %
  UAS7 Percent change from baseline Median: −60.98%
[24]
  Non-responder, UAS7 reduction from baseline of 10 points or more: 24 (64.9) n (%)
  OR for rilzabrutinib vs. placebo, UAS7 reduction of 10 points or more: 0.780
  RRD (%) for rilzabrutinib vs. placebo, UAS7 reduction of 10 points or more: −5.8 %
  Responder, UAS7 reduction from baseline of 10 points or more: 13 (35.1) n (%)
[25]
  Non-responder, UAS7 reduction from baseline of 10 points or more: 18 (43.9) n (%)
  OR for rilzabrutinib vs. placebo, UAS7 reduction of 10 points or more: 1.638
  RRD (%) for rilzabrutinib vs. placebo, UAS7 reduction of 10 points or more: 11.7 %
  Responder, UAS7 reduction from baseline of 10 points or more: 23 (56.1) n (%)
[26]
  UAS7 Change from baseline Mean (SD): −19.04 (11.40)
  UAS7 Change from baseline Median: −18.92
  UAS7 Mean (SD): 11.00 (9.90)
  UAS7 Percent change from baseline Mean (SD): −62.32 (31.89) %
  UAS7 Percent change from baseline Median: −60.00%
[27]
  UAS7 Change from baseline Mean (SD): −27.40 (16.76)
  UAS7 Change from baseline Median: −34.00
  UAS7 Mean (SD): 7.80 (13.01)
  UAS7 Median: 0.00
  UAS7 Percent change from baseline Mean (SD): −74.46 (35.38) %
  UAS7 Percent change from baseline Median: −100.00%
[28]
  Non-responder, UAS7 reduction from baseline of 10 points or more: 15 (42.9) n (%)
  OR for rilzabrutinib vs. placebo, UAS7 reduction of 10 points or more: 1.805
  Responder, UAS7 reduction from baseline of 10 points or more: 20 (57.1) n (%)

From patent publication US20260256792A1, “TREATMENT OF CHRONIC SPONTANEOUS URTICARIA BY ADMINISTERING (R)-2-[3-[4-AMINO-3-(2-FLUORO-4-PHENOXY-PHENYL)PYRAZOLO[3,4-D]PYRIMIDIN-1-YL]PIPERIDINE-1-CARBONYL]-4-METHYL-4-[4-(OXETAN-3-YL)PIPERAZIN-1-YL]PENT-2-ENENITRILE” (priority 2023, published 2026)
